Test system: E. coli BW25113
Experiment: Bacterial cytological profiling (BCP)
Format: cell-based, Escherichia coli
Parameters: DAPI total area / DAPI nucleoid area / DIC area / DIC curvature / DIC feret / DIC length / DIC orientation: unit not given here
Procedure: Overnight E. coli BW25113 cultures were diluted 1:100 in fresh LB medium in a 100 ml Erlenmeyer flask and incubated at 120 r.p.m. and 37 °C. When OD600 >0.2, the cultures were diluted to OD600 of 0.1 in fresh LB medium with a final volume of 200 µl in a 2 ml Eppendorf tube. The appropriate antibiotic or control treatment was applied and the samples were incubated at 200 r.p.m. and 30 °C for 2 h. Subsequently, 4,6-diamidino-2-phenylindole (DAPI) (2 µg ml^−1), FM4-64 (2 µg ml^−1) and SYTOX Green (0.5 µM) were added to reach the desired concentration and the samples were incubated a further 10 min. The samples were then centrifuged at 3,300g for 50 s and the pellets resuspended in half the original volume. From this suspension, 5 µl was spotted onto a 2.0% agarose pad for microscopy.
Microscopy was performed on a Zeiss Axio Observer Z1/7 inverted microscope.
For the qualitative assessment of the bacterial morphology, the acquired images were first pre-processed in ImageJ (v1.53m)[47]. Thereafter the brightness and contrast were adjusted to allow the clearest visual inspection of the particular phenotype. For the quantitative BCP, DIC images were first pre-processed and then a random forest classifier was trained with Illastik (v1.3.3)[48] to generate a segmented image. These binary masks were then combined together with the original DIC image and processed with the ImageJ plugin MicrobeJ (v 5.13l)[49]. MicrobeJ generated cell outlines and performed measurements on cell shape accordingly. The recorded cell outlines produced by MicrobeJ were exported and used as a guide to characterize the DNA shape within each bacterium using a custom-made ImageJ macro (Appendix II). DAPI and SYTOX Green intensity were measured on raw images in a similar manner. Then, by hand, polygons were drawn that excluded bacteria to determine background intensity. After background correction the intensity was standardized to the DMSO control within the same biological replicate. For PCA, the BCP assay was executed for three independently biological replicates. During each experiment, images were acquired until 24 or more bacteria in total had been observed. Following feature extraction for each replicate, principal component analysis was performed using GraphPad Prism (v9.0.0) using multiple variable analysis with standardized data. Principal components (PCs) were selected based on the per cent of total explained variance (minimum 80%).

[1] = BCP, standardized to DMSO control

O=S(=O)(NC[C@H]1CC[C@@H](c2ccc(-c3ccc(F)nc3)cc2)N1)c1cccc2cnccc12 [LEI-801]
PCA clustering of 24 BCP features: clustered with DMSO | DAPI aspect ratio (BCP): 2.179 ± 0.107 | DAPI circularity (BCP): 0.723 ± 0.016 | DAPI nucleoid area (BCP): 2.366 ± 0.636 | DAPI nucleoids (BCP): 1.288 ± 0.064 | DAPI perimeter (BCP): 6.375 ± 0.894 | DAPI roundness (BCP): 0.484 ± 0.024 | DAPI solidity (BCP): 0.916 ± 0.005 | DAPI total area (BCP): 2.897 ± 0.869 | DIC area (BCP): 3.335 ± 0.139 | DIC aspect ratio (BCP): 2.661 ± 0.151 | DIC circularity (BCP): 0.699 ± 0.026 | DIC curvature (BCP): 0.150 ± 0.018 | DIC feret (BCP): 3.227 ± 0.127 | DIC length (BCP): 3.253 ± 0.128 | DIC orientation (BCP): 96.714 ± 3.816 | DIC perimeter (BCP): 7.768 ± 0.245 | DIC roundness (BCP): 0.422 ± 0.025 | DIC sinuosity (BCP): 1.026 ± 0.005 | DIC solidity (BCP): 0.962 ± 0.004 | DIC width (BCP): 1.085 ± 0.030 | Decondensation (BCP): 0.863 ± 0.226 | morphological phenotype (BCP microscopy, 6.25 µM): phenotype that is consistent with the DMSO control | DIC angularity (BCP, 2 h, AMP 12.5, RIF 12.5, TET 6.25, CIP 0.0625, LEI-801 6.25, LEI-800 6.25 µM, average ± SD of 3 replicates): 0.123 ± 0.008 | DAPI intensity [1]: 1.156 ± 0.345 | SYTOX Green intensity [1]: 1.000 ± 0.284

Reference: paper PMC11374673, “Discovery of isoquinoline sulfonamides as allosteric gyrase inhibitors with activity against fluoroquinolone-resistant bacteria” (Nature Chemistry, 2024)
